*1 amine or outer side, *2 acyl side, *3 side chain or, on linkers, in order; H or OH if unused. Where a SMILES comes first, the peptide text is derived from it. Side-chain parts run from the residue outwards. [ ]: non-standard residue; d: D form. The star is where a group is joined. X11 = CCCCCCCCCCCCCCCC(=O)N[C@@H](CCC(=O)NCCCC[C@H](NC(=O)CC[C@H](NC(=O)CC[C@H](NC(=O)CC[C@H](NC(=O)CCC(=O)NCCCOCCOCCOCCCNC(=O)CCC(=O)NCCCOCCOCCOCCCNC(=O)CCC(=O)NCCCOCCOCCOCCCN*)C(=O)O)C(=O)O)C(=O)O)C(N)=O)C(=O)O; X12 = CCCCCCCCCCCCCCCC(=O)N[C@@H](CCC(=O)N[C@@H](CCC(=O)N[C@@H](CCC(=O)NCCCC[C@H](NC(=O)COCC(=O)NCCCOCCOCCOCCCNC(=O)COCC(=O)NCCCOCCOCCOCCCN*)C(N)=O)C(=O)O)C(=O)O)C(=O)O; PEG12 = NCCOCCOCCOCCOCCOCCOCCOCCOCCOCCOCCOCCOCCC(=O)O; γGlu = O=C(O)[C@H](CCC(=O)[*:2])N[*:1]; Arg(Me) = CNC(=N)NCCC[C@H](N)C(=O)O; Stearoyl = CCCCCCCCCCCCCCCCCC(=O)*; Palmitoyl = CCCCCCCCCCCCCCCC(=O)*; αMeK = C[C@](N)(CCCCN)C(=O)O; Nle = CCCC[C@H](N)C(=O)O; AEEA = NCCOCCOCC(=O)O; Aib = CC(C)(N)C(=O)O
Biological target: T1, RXFP1 (Homo sapiens, UniProt Q9HBX9)
T1 construct: OVCAR5 cells expressing endogenous RXFP1; endogenous in cells; host or cells: OVCAR5 cells
T1 sequence (Q9HBX9 1-757): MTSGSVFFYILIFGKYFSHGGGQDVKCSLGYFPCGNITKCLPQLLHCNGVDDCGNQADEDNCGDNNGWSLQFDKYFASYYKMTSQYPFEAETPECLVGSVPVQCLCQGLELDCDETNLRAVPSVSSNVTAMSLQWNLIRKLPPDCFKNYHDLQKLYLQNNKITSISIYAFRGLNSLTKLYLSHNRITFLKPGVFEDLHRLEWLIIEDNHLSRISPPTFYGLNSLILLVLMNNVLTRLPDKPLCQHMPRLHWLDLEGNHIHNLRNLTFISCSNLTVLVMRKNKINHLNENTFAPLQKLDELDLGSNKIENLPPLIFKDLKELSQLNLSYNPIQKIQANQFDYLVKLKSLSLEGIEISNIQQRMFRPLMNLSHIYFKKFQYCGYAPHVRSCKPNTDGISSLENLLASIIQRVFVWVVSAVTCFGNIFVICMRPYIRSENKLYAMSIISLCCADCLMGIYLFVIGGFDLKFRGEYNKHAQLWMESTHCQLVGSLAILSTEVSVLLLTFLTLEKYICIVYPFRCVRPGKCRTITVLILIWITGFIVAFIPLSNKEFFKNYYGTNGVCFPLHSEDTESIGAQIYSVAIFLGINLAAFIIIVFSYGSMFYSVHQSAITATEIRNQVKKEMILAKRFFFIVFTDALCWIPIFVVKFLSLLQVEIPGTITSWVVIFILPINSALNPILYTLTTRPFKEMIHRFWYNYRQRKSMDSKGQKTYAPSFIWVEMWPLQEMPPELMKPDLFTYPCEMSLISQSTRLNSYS
Assay: OVCAR5 cAMP assay (HTRF), RXFP1 agonist activity
Format: cell-based
Conditions: for EC50: OVCAR5 cells, cAMP HTRF, read-out: EC50 (nM), OVCAR 5 cells (cAMP); for Emax: OVCAR-5, maximal cAMP relative to H2-relaxin maximum (100%), read-out: EMax, OVCAR 5 cells (cAMP)
Summary of the method: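 OVCAR5 cells (endogenous RXFP1) pretreated 40 min at 37° C with 1 mM IBMX, then exposed to peptides in serum-free medium for 30 min at 37° C. Lysate cAMP read by HTRF; EC50 from variable-slope sigmoidal fit; Emax as % of H2-relaxin maximal cAMP in same run.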

EC50 [nM]	Emax [%]	SMILES
0.4	88	CCCCCCCCCCCCCCCC(=O)N[C@@H](CCC(=O)N[C@@H](CCC(=O)N[C@@H](CCC(=O)N[C@@H](CCC(=O)NCCOCCOCC(=O)NCCOCCOCC(=O)NCCOCCOCC(=O)NCCOCCOCC(=O)NCCCC[C@H](NC(=O)[C@H](CCCCNC(C)=O)NC(=O)[C@H](CCCCN)NC(=O)[C@H](CCCNC(=N)N)NC(=O)[C@](C)(CCCCN)NC(=O)[C@H](CO)NC(=O)[C@H](Cc1ccccc1)NC(=O)[C@@H](NC(=O)[C@H](CO)NC(=O)[C@H](CCCC)NC(=O)CNC(=O)[C@H](CCC(=O)O)NC(=O)C(C)(C)NC(=O)C(C)(C)NC(=O)[C@@H](NC(=O)[C@H](CCCCNC(C)=O)NC(=O)[C@H](C)NC(=O)[C@H](CCCNC(=N)N)NC(=O)[C@@H](NC(=O)[C@H](CCCCN)NC(=O)[C@H](CCC(=O)O)NC(=O)[C@H](CCCNC(=N)N)NC(=O)CNC(=O)[C@H](CCC(=O)O)NC(=O)[C@H](CC(C)C)NC(C)=O)C(C)C)[C@@H](C)CC)[C@@H](C)O)C(N)=O)C(=O)O)C(=O)O)C(=O)O)C(=O)O [compound 140] (Ac-LEGREKVRAK(Ac)I[Aib][Aib]EG[Nle]STFS[αMeK]RKK(Ac)K([AEEA-AEEA-AEEA-AEEA-γGlu-γGlu-γGlu-γGlu-Palmitoyl])-NH2)
–	91	CCCCCCCCCCCCCCCC(=O)N[C@@H](CCC(=O)N[C@@H](CCC(=O)N[C@@H](CCC(=O)NCCCC[C@H](NC(=O)COCC(=O)NCCCOCCOCCOCCCNC(=O)COCC(=O)NCCCOCCOCCOCCCNC(=O)[C@H](CCCCNC(C)=O)NC(=O)[C@H](CCCCN)NC(=O)[C@H](CCCNC(=N)N)NC(=O)C(C)(C)NC(=O)[C@H](CO)NC(=O)[C@H](Cc1c[nH]c2ccccc12)NC(=O)[C@@H](NC(=O)[C@H](CO)NC(=O)[C@H](CCC(N)=O)NC(=O)CNC(=O)[C@H](CCC(=O)O)NC(=O)C(C)(C)NC(=O)C(C)(C)NC(=O)[C@@H](NC(=O)[C@H](CCC(N)=O)NC(=O)[C@H](C)NC(=O)[C@H](CCCNC(=N)N)NC(=O)[C@@H](NC(=O)[C@H](CCCCN)NC(=O)[C@H](CCC(=O)O)NC(=O)[C@H](CCCNC(=N)N)NC(=O)CNC(=O)[C@H](CCC(=O)O)NC(=O)[C@H](CC(C)C)NC(C)=O)C(C)C)[C@@H](C)CC)[C@@H](C)O)C(N)=O)C(=O)O)C(=O)O)C(=O)O [compound 177] (Ac-LEGREKVRAQI[Aib][Aib]EGQSTWS[Aib]RKK(Ac)-X12)
–	93	CCCCCCCCCCCCCCCCCC(=O)N[C@@H](CCC(=O)NCCCC[C@H](NC(=O)[C@H](CCCCN)NC(=O)[C@H](CCCNC(=N)N)NC(=O)C(C)(C)NC(=O)[C@H](CO)NC(=O)[C@H](Cc1c[nH]c2ccccc12)NC(=O)[C@@H](NC(=O)[C@H](CO)NC(=O)[C@H](CCCC)NC(=O)CNC(=O)[C@H](CCC(=O)O)NC(=O)C(C)(C)NC(=O)C(C)(C)NC(=O)[C@@H](NC(=O)[C@H](CCC(N)=O)NC(=O)[C@H](C)NC(=O)[C@H](CCCNC(=N)N)NC(=O)[C@@H](NC(=O)[C@H](CCCCN)NC(=O)[C@H](CCC(=O)O)NC(=O)[C@H](CCCNC(=N)N)NC(=O)CNC(=O)[C@H](CCC(=O)O)NC(=O)[C@H](CC(C)C)NC(C)=O)C(C)C)[C@@H](C)CC)[C@@H](C)O)C(N)=O)C(=O)O [compound 3] (Ac-LEGREKVRAQI[Aib][Aib]EG[Nle]STWS[Aib]RKK([γGlu-Stearoyl])-NH2)
0.01	83	CCCCCCCCCCCCCCCCCC(=O)N[C@@H](CCC(=O)N[C@@H](CCC(=O)N[C@@H](CCC(=O)NCCOCCOCC(=O)NCCOCCOCC(=O)NCCOCCOCC(=O)NCCCC[C@H](NC(=O)[C@H](CCCCNC(C)=O)NC(=O)[C@H](CCCCN)NC(=O)[C@H](CCCNC(=N)NC)NC(=O)C(C)(C)NC(=O)[C@H](CO)NC(=O)[C@H](Cc1c[nH]c2ccccc12)NC(=O)[C@@H](NC(=O)[C@H](CO)NC(=O)[C@H](CCCC)NC(=O)CNC(=O)[C@H](CCC(=O)O)NC(=O)C(C)(C)NC(=O)C(C)(C)NC(=O)[C@@H](NC(=O)[C@H](CCCCNC(C)=O)NC(=O)[C@H](C)NC(=O)[C@H](CCCNC(=N)N)NC(=O)[C@@H](NC(=O)[C@H](CCCCN)NC(=O)[C@H](CCC(=O)O)NC(=O)[C@H](CCCNC(=N)N)NC(=O)CNC(=O)[C@H](CCC(=O)O)NC(=O)[C@H](CC(C)C)NC(C)=O)C(C)C)[C@@H](C)CC)[C@@H](C)O)C(N)=O)C(=O)O)C(=O)O)C(=O)O [compound 133] (Ac-LEGREKVRAK(Ac)I[Aib][Aib]EG[Nle]STWS[Aib][Arg(Me)]KK(Ac)K([AEEA-AEEA-AEEA-γGlu-γGlu-γGlu-Stearoyl])-NH2)
–	83	CCCCCCCCCCCCCCCC(=O)N[C@@H](CCC(=O)N[C@@H](CCC(=O)N[C@@H](CCC(=O)NCCOCCOCCOCCOCCOCCOCCOCCOCCOCCOCCOCCOCCC(=O)NCCCC[C@H](NC(=O)[C@H](CCCCNC(C)=O)NC(=O)[C@H](CCCCN)NC(=O)[C@H](CCCNC(=N)N)NC(=O)C(C)(C)NC(=O)[C@H](CO)NC(=O)[C@H](Cc1c[nH]c2ccccc12)NC(=O)[C@@H](NC(=O)[C@H](CO)NC(=O)[C@H](CCCC)NC(=O)CNC(=O)[C@H](CCC(=O)O)NC(=O)C(C)(C)NC(=O)C(C)(C)NC(=O)[C@@H](NC(=O)[C@H](CCCCNC(C)=O)NC(=O)[C@H](C)NC(=O)[C@H](CCCNC(=N)N)NC(=O)[C@@H](NC(=O)[C@H](CCCCN)NC(=O)[C@H](CCC(=O)O)NC(=O)[C@H](CCCNC(=N)N)NC(=O)CNC(=O)[C@H](CCC(=O)O)NC(=O)[C@H](CC(C)C)NC(C)=O)C(C)C)[C@@H](C)CC)[C@@H](C)O)C(N)=O)C(=O)O)C(=O)O)C(=O)O [compound 66] (Ac-LEGREKVRAK(Ac)I[Aib][Aib]EG[Nle]STWS[Aib]RKK(Ac)K([PEG12-γGlu-γGlu-γGlu-Palmitoyl])-NH2)
0.16	89	CCCCCCCCCCCCCCCCCC(=O)N[C@@H](CCC(=O)NCCOCCOCC(=O)NCCOCCOCC(=O)N[C@@H](CCC(=O)N[C@@H](CCC(=O)NCCCC[C@H](NC(=O)[C@H](CCCCN)NC(=O)[C@H](CCCNC(=N)N)NC(=O)C(C)(C)NC(=O)[C@H](CO)NC(=O)[C@H](Cc1c[nH]c2ccccc12)NC(=O)[C@@H](NC(=O)[C@H](CO)NC(=O)[C@H](CCCC)NC(=O)CNC(=O)[C@H](CCC(=O)O)NC(=O)C(C)(C)NC(=O)C(C)(C)NC(=O)[C@@H](NC(=O)[C@H](CCC(N)=O)NC(=O)[C@H](C)NC(=O)[C@H](CCCNC(=N)N)NC(=O)[C@@H](NC(=O)[C@H](CCCCN)NC(=O)[C@H](CCC(=O)O)NC(=O)[C@H](CCCNC(=N)N)NC(=O)CNC(=O)[C@H](CCC(=O)O)NC(=O)[C@H](CC(C)C)NC(C)=O)C(C)C)[C@@H](C)CC)[C@@H](C)O)C(N)=O)C(=O)O)C(=O)O)C(=O)O [compound 104] (Ac-LEGREKVRAQI[Aib][Aib]EG[Nle]STWS[Aib]RKK([γGlu-γGlu-AEEA-AEEA-γGlu-Stearoyl])-NH2)
0.2	100	CCCCCCCCCCCCCCCC(=O)N[C@@H](CCC(=O)NCCCC[C@H](NC(=O)CC[C@H](NC(=O)CC[C@H](NC(=O)CC[C@H](NC(=O)CCC(=O)NCCCOCCOCCOCCCNC(=O)CCC(=O)NCCCOCCOCCOCCCNC(=O)CCC(=O)NCCCOCCOCCOCCCNC(=O)[C@H](CCCCNC(C)=O)NC(=O)[C@H](C)NC(=O)[C@H](CCCNC(=N)N)NC(=O)[C@](C)(CCCCN)NC(=O)[C@H](CO)NC(=O)[C@H](Cc1ccccc1)NC(=O)[C@@H](NC(=O)[C@H](CO)NC(=O)[C@H](CCCC)NC(=O)CNC(=O)[C@H](CCC(=O)O)NC(=O)C(C)(C)NC(=O)C(C)(C)NC(=O)[C@@H](NC(=O)[C@H](CCCCNC(C)=O)NC(=O)[C@H](C)NC(=O)[C@H](CCCNC(=N)N)NC(=O)[C@@H](NC(=O)[C@H](CCCCN)NC(=O)[C@H](CCC(=O)O)NC(=O)[C@H](CCCNC(=N)N)NC(=O)CNC(=O)[C@H](CCC(=O)O)NC(=O)[C@H](CC(C)C)NC(C)=O)C(C)C)[C@@H](C)CC)[C@@H](C)O)C(=O)O)C(=O)O)C(=O)O)C(N)=O)C(=O)O [compound 193] (Ac-LEGREKVRAK(Ac)I[Aib][Aib]EG[Nle]STFS[αMeK]RAK(Ac)-X11)
–	94	CCCCCCCCCCCCCCCCCC(=O)N[C@@H](CCC(=O)N[C@@H](CCC(=O)N[C@@H](CCC(=O)NCCOCCOCC(=O)NCCOCCOCC(=O)NCCCC[C@H](NC(=O)[C@H](CCCCN)NC(=O)[C@H](CCCCN)NC(=O)[C@H](CCCNC(=N)N)NC(=O)C(C)(C)NC(=O)[C@H](CO)NC(=O)[C@H](Cc1c[nH]c2ccccc12)NC(=O)[C@@H](NC(=O)[C@H](CO)NC(=O)[C@H](CCC(=O)O)NC(=O)CNC(=O)[C@H](CCC(=O)O)NC(=O)C(C)(C)NC(=O)C(C)(C)NC(=O)[C@@H](NC(=O)[C@H](CCC(N)=O)NC(=O)[C@H](C)NC(=O)[C@H](CCCNC(=N)N)NC(=O)[C@@H](NC(=O)[C@H](CCCCN)NC(=O)[C@H](CCC(=O)O)NC(=O)[C@H](CCCNC(=N)N)NC(=O)CNC(=O)[C@H](CCC(=O)O)NC(=O)[C@H](CC(C)C)NC(C)=O)C(C)C)[C@@H](C)CC)[C@@H](C)O)C(N)=O)C(=O)O)C(=O)O)C(=O)O [compound 68] (Ac-LEGREKVRAQI[Aib][Aib]EGESTWS[Aib]RKKK([AEEA-AEEA-γGlu-γGlu-γGlu-Stearoyl])-NH2)
